Assay results reported in the supplement of paper PMC9663587.

Columns and labels:
THZ531 [1] = compound: T1, CN(C)C/C=C/C(=O)Nc1ccc(C(=O)N2CCC[C@@H](Nc3ncc(Cl)c(-c4c[nH]c5ccccc45)n3)C2)cc1 [THZ531]
BSJ-01-175 = compound: CN(C)C/C=C/C(=O)Nc1ccc(O[C@@H]2CCC[C@@H](Nc3ncc(Cl)c(-c4c[nH]c5ccccc45)n3)C2)cc1 [BSJ-01-175]
senexin b = compound: CN1CCN(C(=O)c2ccc3cc(CCNc4ncnc5ccc(C#N)cc45)ccc3c2)CC1 [senexin b]
Rucaparib = compound: CNCc1ccc(-c2[nH]c3cc(F)cc4c3c2CCNC4=O)cc1 [Rucaparib]
AZD6738 = compound: C[C@@H]1COCCN1c1cc(C2([S@](C)(=N)=O)CC2)nc(-c2cc[nH]c3nccc2-3)n1 [AZD6738]
YKL-5-124 = compound: C=CC(=O)Nc1ccc(C(=O)Nc2[nH]nc3c2CN(C(=O)N[C@H](CN(C)C)c2ccccc2)C3(C)C)cc1 [YKL-5-124]; test: GR value, 72 h; higher = faster growth (1 = untreated, <0 = killing);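 further: breast cancer and non-malignant breast epithelial lines, nine half-log doses, viable cells counted by Hoechst and LIVE/DEAD dye imaging versus time-zero plates and DMSO controls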
BSJ-03-123 = compound: CC(=O)c1c(C)c2cnc(Nc3ccc(N4CCN(CCOCCOCCOCCNC(=O)COc5cccc6c5C(=O)N(C5CCC(=O)NC5=O)C6=O)CC4)cn3)nc2n(C2CCCC2)c1=O [BSJ-03-123]; test: as above
LEE011/Ribociclib = compound: CN(C)C(=O)c1cc2cnc(Nc3ccc(N4CCNCC4)cn3)nc2n1C1CCCC1 [LEE011/Ribociclib]; test: as above
THZ531 [2] = compound: T1, THZ531; test: as above
THZ1 = compound: CN(C)C/C=C/C(=O)Nc1ccc(C(=O)Nc2cccc(Nc3ncc(Cl)c(-c4c[nH]c5ccccc45)n3)c2)cc1 [THZ1]; test: as above
Paclitaxel = compound: CC(=O)O[C@H]1C(=O)[C@@]2(C)[C@H]([C@H](OC(=O)c3ccccc3)[C@]3(O)C[C@H](OC(=O)[C@H](O)[C@@H](NC(=O)c4ccccc4)c4ccccc4)C(C)=C1C3(C)C)[C@]1(OC(C)=O)CO[C@@H]1C[C@@H]2O [Paclitaxel]
Cediranib/AZD2171 = compound: COc1cc2c(Oc3ccc4[nH]c(C)cc4c3F)ncnc2cc1OCCCN1CCCC1 [Cediranib/AZD2171]
Pictilisib/GDC0941 = compound: CS(=O)(=O)N1CCN(Cc2cc3nc(-c4cccc5[nH]ncc45)nc(N4CCOCC4)c3s2)CC1 [Pictilisib/GDC0941]
Ceritinib/LDK378 = compound: Cc1cc(Nc2ncc(Cl)c(Nc3ccccc3S(=O)(=O)C(C)C)n2)c(OC(C)C)cc1C1CCNCC1 [Ceritinib/LDK378]
Tivantinib/ARQ197 = compound: O=C1NC(=O)[C@@H](c2cn3c4c(cccc24)CCC3)[C@@H]1c1c[nH]c2ccccc12 [Tivantinib/ARQ197]
[3] = compound: CC(=O)c1c(C)c2cnc(Nc3ccc(N4CCNCC4)cn3)nc2n(C2CCCC2)c1=O; test: GR value, 72 h; higher = faster growth (1 = untreated, <0 = killing);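 further: breast cancer and non-malignant breast epithelial lines, nine half-log doses, viable cells counted by Hoechst and LIVE/DEAD dye imaging versus time-zero plates and DMSO controls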
[4] = compound: CCN1CCN(Cc2ccc(Nc3ncc(F)c(-c4cc(F)c5nc(C)n(C(C)C)c5c4)n3)nc2)CC1; test: as above
[5] = compound: CCc1cnn2c(NCc3ccc[n+]([O-])c3)cc(N3CCCC[C@H]3CCO)nc12; test: as above
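Wherever GR50, 72 h is given: breast cancer and non-malignant breast epithelial cell lines, Deep Dye Drop or Dye Drop imaging, nine half-log doses, GR normalized to time-zero plates and DMSO-only controls.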

## MCF10A (GM)
THZ531 [1]
  GR50, 72 h: 0.428 µM
BSJ-01-175
  GR50, 72 h: 1.17 µM
Senexin b
  GR50, 72 h: > 10 µM
Rucaparib
  GR50, 72 h: > 10 µM
AZD6738
  GR50, 72 h: 6.85 µM
YKL-5-124; 0.001 µM
  GR value: 0.327 GR
YKL-5-124; 0.003162 µM
  GR value: 0.118 GR
YKL-5-124; 0.01 µM
  GR value: 0.0291 GR
YKL-5-124; 0.03162 µM
  GR value: 0.0039 GR
YKL-5-124; 0.1 µM
  GR value: 0.0039 GR
YKL-5-124; 0.3162 µM
  GR value: -0.0162 GR
YKL-5-124; 1 µM
  GR value: -0.0398 GR
YKL-5-124; 3.162 µM
  GR value: -0.0468 GR
YKL-5-124; 10 µM
  GR value: -0.141 GR
BSJ-03-123; 0.001 µM
  GR value: 0.904 GR
BSJ-03-123; 0.003162 µM
  GR value: 0.952 GR
BSJ-03-123; 0.01 µM
  GR value: 0.879 GR
BSJ-03-123; 0.03162 µM
  GR value: 0.859 GR
BSJ-03-123; 0.1 µM
  GR value: 0.884 GR
BSJ-03-123; 0.3162 µM
  GR value: 0.795 GR
BSJ-03-123; 1 µM
  GR value: 0.658 GR
BSJ-03-123; 3.162 µM
  GR value: 0.549 GR
BSJ-03-123; 10 µM
  GR value: -0.17 GR
LEE011/Ribociclib; 0.001 µM
  GR value: 0.925 GR
LEE011/Ribociclib; 0.003162 µM
  GR value: 0.95 GR
LEE011/Ribociclib; 0.01 µM
  GR value: 0.906 GR
LEE011/Ribociclib; 0.03162 µM
  GR value: 0.892 GR
LEE011/Ribociclib; 0.1 µM
  GR value: 0.859 GR
LEE011/Ribociclib; 0.3162 µM
  GR value: 0.823 GR
LEE011/Ribociclib; 1 µM
  GR value: 0.808 GR
LEE011/Ribociclib; 3.162 µM
  GR value: 0.736 GR
LEE011/Ribociclib; 10 µM
  GR value: 0.525 GR
THZ531 [2]; 0.0001 µM
  GR value: 1 GR
THZ531 [2]; 0.0003162 µM
  GR value: 1 GR
THZ531 [2]; 0.001 µM
  GR value: 0.992 GR
THZ531 [2]; 0.003162 µM
  GR value: 0.983 GR
THZ531 [2]; 0.01 µM
  GR value: 0.997 GR
THZ531 [2]; 0.03162 µM
  GR value: 0.974 GR
THZ531 [2]; 0.1 µM
  GR value: 0.926 GR
THZ531 [2]; 0.3162 µM
  GR value: 0.707 GR
THZ531 [2]; 1 µM
  GR value: -0.276 GR
THZ1; 0.0001 µM
  GR value: 0.997 GR
THZ1; 0.0003162 µM
  GR value: 0.998 GR
THZ1; 0.001 µM
  GR value: 0.986 GR
THZ1; 0.003162 µM
  GR value: 0.993 GR
THZ1; 0.01 µM
  GR value: 0.898 GR
THZ1; 0.03162 µM
  GR value: 0.539 GR
THZ1; 0.1 µM
  GR value: 0.23 GR
THZ1; 0.3162 µM
  GR value: 0.0499 GR
THZ1; 1 µM
  GR value: -0.285 GR

## MDAMB361
Paclitaxel
  GR50, 72 h: 0.00311 µM
THZ531 [1]
  GR50, 72 h: 0.0273 µM
BSJ-01-175
  GR50, 72 h: 0.00163 µM
Senexin b
  GR50, 72 h: 1.62 µM
Cediranib/AZD2171
  GR50, 72 h: 2.22 µM
Pictilisib/GDC0941
  GR50, 72 h: 0.0792 µM
AZD6738
  GR50, 72 h: 4.79 µM
Ceritinib/LDK378
  GR50, 72 h: 0.266 µM
Tivantinib/ARQ197
  GR50, 72 h: 0.342 µM
YKL-5-124; 0.001 µM
  GR value: 0.264 GR
YKL-5-124; 0.003162 µM
  GR value: 0.0247 GR
YKL-5-124; 0.01 µM
  GR value: -0.0567 GR
YKL-5-124; 0.03162 µM
  GR value: -0.0052 GR
YKL-5-124; 0.1 µM
  GR value: -0.0751 GR
YKL-5-124; 0.3162 µM
  GR value: -0.226 GR
YKL-5-124; 1 µM
  GR value: -0.188 GR
YKL-5-124; 3.162 µM
  GR value: -0.358 GR
YKL-5-124; 10 µM
  GR value: -0.881 GR
BSJ-03-123; 0.001 µM
  GR value: 1.09 GR
BSJ-03-123; 0.003162 µM
  GR value: 0.828 GR
BSJ-03-123; 0.01 µM
  GR value: 0.927 GR
BSJ-03-123; 0.03162 µM
  GR value: 0.784 GR
BSJ-03-123; 0.1 µM
  GR value: 0.659 GR
BSJ-03-123; 0.3162 µM
  GR value: 0.489 GR
BSJ-03-123; 1 µM
  GR value: 0.32 GR
BSJ-03-123; 3.162 µM
  GR value: 0.309 GR
BSJ-03-123; 10 µM
  GR value: -0.0683 GR
[3]; 0.0003162 µM
  GR value: 0.963 GR
[3]; 0.001 µM
  GR value: 1.12 GR
[3]; 0.003162 µM
  GR value: 0.976 GR
[3]; 0.01 µM
  GR value: 0.78 GR
[3]; 0.03162 µM
  GR value: 0.319 GR
[3]; 0.1 µM
  GR value: 0.172 GR
[3]; 0.3162 µM
  GR value: 0.0854 GR
[3]; 1 µM
  GR value: 0.151 GR
[3]; 3.162 µM
  GR value: 0.184 GR
[4]; 0.001 µM
  GR value: 0.882 GR
[4]; 0.003162 µM
  GR value: 0.631 GR
[4]; 0.01 µM
  GR value: 0.227 GR
[4]; 0.03162 µM
  GR value: 0.118 GR
[4]; 0.1 µM
  GR value: 0.119 GR
[4]; 0.3162 µM
  GR value: 0.121 GR
[4]; 1 µM
  GR value: 0.0452 GR
[4]; 3.162 µM
  GR value: -0.189 GR
[4]; 10 µM
  GR value: -0.341 GR
[5]; 0.0001 µM
  GR value: 1.02 GR
[5]; 0.0003162 µM
  GR value: 1.06 GR
[5]; 0.001 µM
  GR value: 0.999 GR
[5]; 0.003162 µM
  GR value: 1.09 GR
[5]; 0.01 µM
  GR value: 0.737 GR
[5]; 0.03162 µM
  GR value: -0.473 GR
[5]; 0.1 µM
  GR value: -0.284 GR
[5]; 0.3162 µM
  GR value: -0.28 GR
[5]; 1 µM
  GR value: -0.282 GR
LEE011/Ribociclib; 0.001 µM
  GR value: 0.49 GR
LEE011/Ribociclib; 0.003162 µM
  GR value: 0.396 GR
LEE011/Ribociclib; 0.01 µM
  GR value: 0.306 GR
LEE011/Ribociclib; 0.03162 µM
  GR value: 0.435 GR
LEE011/Ribociclib; 0.1 µM
  GR value: 0.287 GR
LEE011/Ribociclib; 0.3162 µM
  GR value: 0.0812 GR
LEE011/Ribociclib; 1 µM
  GR value: 0.176 GR
LEE011/Ribociclib; 3.162 µM
  GR value: -0.0126 GR
LEE011/Ribociclib; 10 µM
  GR value: 0.2 GR
THZ531 [2]; 0.0001 µM
  GR value: 0.955 GR
THZ531 [2]; 0.0003162 µM
  GR value: 0.912 GR
THZ531 [2]; 0.001 µM
  GR value: 0.758 GR
THZ531 [2]; 0.003162 µM
  GR value: 0.849 GR
THZ531 [2]; 0.01 µM
  GR value: 1.06 GR
THZ531 [2]; 0.03162 µM
  GR value: 0.299 GR
THZ531 [2]; 0.1 µM
  GR value: -0.82 GR
THZ531 [2]; 0.3162 µM
  GR value: -0.756 GR
THZ531 [2]; 1 µM
  GR value: -0.539 GR
THZ1; 0.0001 µM
  GR value: 0.939 GR
THZ1; 0.0003162 µM
  GR value: 0.772 GR
THZ1; 0.001 µM
  GR value: 0.986 GR
THZ1; 0.003162 µM
  GR value: 0.521 GR
THZ1; 0.01 µM
  GR value: 0.463 GR
THZ1; 0.03162 µM
  GR value: 0.153 GR
THZ1; 0.1 µM
  GR value: -0.511 GR
THZ1; 0.3162 µM
  GR value: -0.804 GR
THZ1; 1 µM
  GR value: -0.71 GR
